Data from US10676538B2, “Inhibitors of Staphylococcus pseudintermedius sortase” (priority 2017, dated 2020).
Where two headings read alike, the source gives them in different places.

Key:
[1] = tested on: S. pseudintermedius recombinant SrtA; assay: in vitro FRET-based functional assay of recombinant SrtA; format: biochemical, Staphylococcus pseudintermedius; details: compared to buffer controls, averages from three independent experiments
Description: Compounds predicted to bind to the active site were identified. Initially, from the 200 highest ranked compounds, twenty were selected. […] The assay to determine the functional activity of recombinant SrtA and its inhibition was performed in 96-well black microtiter plates with clear bottom (Corning, Fisher Scientific, Hampton, N.H.) in a final reaction volume of 200 μl. Fluorescent-quenched bacterial sortase substrate III, Abz/DNP (Abz-LPETG-K(Dnp)-NH2 (GenScript Inc., Piscataway, N.J.) dissolved in isopropanol was used for Km determination. Varying concentrations of the substrate (2.5 μM-200 μM) were incubated at 25° C. with 1 μM of SrtA diluted in assay buffer (50 mM Tris-HCl, 150 mM NaCl, 5 mM CaCl2, and 0.1% Triton X-100, pH 7.5). The increase in fluorescence was measured in a kinetic assay for 20 min at 2 min intervals using a Synergy HTX multimode reader (BioTek, Winooski, Vt.) at wavelengths 320 excitation/420 emission. The initial velocity V0 was determined from the linear portion of the curve and the Km was determined using the Michaelis-Menten equation where V=Vmax[S]/([S]+Km). To measure the effect of inhibitors recombinant SrtA was pre-incubated with varying amounts of the inhibitor at […] and subjected to the same FRET assay.

[2] = tested on: S. pseudintermedius isolates; assay: flow cytometry of cell wall-associated Protein A on bacteria grown with inhibitor (indirect SrtA inhibition); format: cell-based, Staphylococcus pseudintermedius; details: compared to control without inhibitor
Description: FIG. 4: […] bacterial isolates 08-3228, 08-1661, NA12, NA16 and NA45 were grown in the presence of inhibitor 1847 until exponential log phase. S. pseudintermedius recombinant SrtA inhibition was measured indirectly by determining the density of cell wall associated Protein A (one of the LPXTG proteins targeted by SrtA) using flow cytometry. Protein A was detected with FITC conjugated chicken anti-protein A (Gallus immunotech, Cary, N.C.). The values represent average from three independent experiments with the standard deviations shown at the top of each bar.
Inhibition of SrtA in bacterial cells was measured indirectly by measuring the decrease in the amount of Protein A on the bacterial surface using flow cytometry. Five representative S. pseudintermedius isolates were tested. […] Isolate NA45 was not affected by compound 1847.

Sortase A = details: 10 μM SrtA, 4 μM inhibitor

Q: For COc1ccc(N2CCN(S(=O)(=O)Cc3ccc(F)cc3)CC2)cc1 [STL223442], which “inhibition of SrtA” value [1] is on record?
A: 13.75%

Q: With N#Cc1ccc(NS(=O)(=O)Cc2ccccc2)cc1 [STK022091] as the compound, how does the “inhibition of SrtA” value [1] read?
A: did not have any detectable inhibitory effect

Q: And the “inhibition of SrtA” value ([1]; listed as SKT022091)?
A: did not have inhibitory effect

Q: For C[N+](C)(C)CCSS(C)(=O)=O.[Br-] [MTSET, reference compound], which “inhibition of SrtA” value [1] is on record?
A: 57.5%

Q: Which “reduction in the density of cell wall-associated Protein A” value (from here on “reduction in the density”) ([2]; isolate 06-3228) does the source give for O=S(=O)(O)c1ccc(N=Nc2ccccc2)cc1 [Compound 1847] here?
A: 38.7%

Q: What about the “reduction in the density” value ([2]; isolate 08-1661) of the same compound?
A: 74.3%

Q: And the “reduction in the density” value ([2]; isolate NA12)?
A: 42.8%

Q: What about the “reduction in the density” value ([2]; isolate NA16) of the same compound?
A: 89.4%

Q: What about the “reduction in the density” value ([2]; isolate NA45) of the same compound?
A: not affected

Q: What about the “melting temperature of 1847-stabilized Sortase A” value (Sortase A; Srt A in His-Tag elution buffer) of the same compound?
A: 86.56 °C

Q: What about the “melting temperature of 1847-stabilized Sortase A” value (Sortase A; Srt A in PBS) of the same compound?
A: 86.81 °C

Q: And the “inhibition of SrtA” value [1]?
A: 50-80%
